Source: ChEMBL document CHEMBL1201862, “PubChem BioAssay data set” (2004)
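Five compound concentrations were applied to cells in 96-well plates for 48 hours; endpoints were derived by simple linear interpolation of the resulting dose-response curve. At the GI50, growth is halved.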 Activity calls are given as the source filed them. Cut-off read from the data, not from the text of the source: active = GI50 up to about 1.1 µM and inactive = higher.

What was measured:
Test in all cases: NCI anticancer screen, dose series, 48 h
786-0 = system: 786-0
BT-549 = system: BT-549
EKVX = system: EKVX
HCT-116 = system: HCT-116
HOP-92 = system: HOP-92
IGROV-1 = system: IGROV-1
K562 = system: K562
M14 = system: M14
MDA-MB-435 = system: MDA-MB-435
MDA-N = system: MDA-N
NCI-H460 = system: NCI-H460
OVCAR-5 = system: OVCAR-5
PC-3 = system: PC-3
RXF 393 = system: RXF 393
SF-295 = system: SF-295
SR = system: SR
T47D = system: T47D
TK-10 = system: TK-10
UACC-62 = system: UACC-62
LOX IMVI = system: LOX IMVI

Measured: GI50

CCOC(=O)N/N=C/C1=NN(C(=O)OCC)[S+]([O-])C1C (centres undefined)
inactive: 786-0 > 100 µM | BT-549 > 100 µM | EKVX > 100 µM | HCT-116 > 100 µM | HOP-92 > 100 µM | IGROV-1 > 100 µM | K562 > 100 µM | M14 > 100 µM | MDA-MB-435 > 100 µM | MDA-N > 100 µM | NCI-H460 96.8 µM | OVCAR-5 > 100 µM | PC-3 > 100 µM | RXF 393 > 100 µM | SF-295 > 100 µM | SR > 100 µM | T47D > 100 µM | TK-10 > 100 µM | UACC-62 > 100 µM

CC#CC(=O)SCCNC(=O)CC
inactive: 786-0 > 6.7 µM | BT-549 3.81 µM | EKVX > 10 µM | HCT-116 8.51 µM | IGROV-1 > 10 µM | K562 > 5.38 µM | LOX IMVI 3.31 µM | M14 > 8.05 µM | MDA-MB-435 7.24 µM | MDA-N 6.07 µM | NCI-H460 > 10 µM | OVCAR-5 > 10 µM | PC-3 > 10 µM | RXF 393 4.53 µM | SF-295 > 10 µM | SR > 4.79 µM | T47D > 6.5 µM | TK-10 > 10 µM | UACC-62 > 9.44 µM

CCOC(=O)c1ccc(N(C)Cc2cnc3nc(N)nc(N)c3n2)cc1
inactive: 786-0 7.45 µM | BT-549 17.3 µM | EKVX 24.6 µM | HCT-116 3.66 µM | IGROV-1 5.71 µM | K562 2.58 µM | LOX IMVI 5.5 µM | M14 7.83 µM | MDA-MB-435 8.83 µM | MDA-N 18.5 µM | NCI-H460 9.79 µM | OVCAR-5 17.4 µM | PC-3 5.02 µM | RXF 393 5.97 µM | SF-295 10.2 µM | SR 6.81 µM | T47D 26.9 µM | TK-10 13.8 µM | UACC-62 5.42 µM

N#Cc1[nH]c(=O)n(-c2ccc(Cl)cc2)c1N
inactive: 786-0 > 10 µM | BT-549 > 10 µM | EKVX > 10 µM | HCT-116 > 10 µM | IGROV-1 > 10 µM | K562 > 10 µM | LOX IMVI > 10 µM | M14 > 10 µM | MDA-MB-435 > 10 µM | MDA-N > 10 µM | NCI-H460 > 10 µM | OVCAR-5 > 10 µM | PC-3 > 10 µM | RXF 393 > 10 µM | SF-295 > 10 µM | SR > 10 µM | T47D > 10 µM | TK-10 > 10 µM | UACC-62 > 10 µM

CC(=O)Nc1cc2nc3n(c2cc1C)CCC3OC(C)=O (centres undefined)
inactive: 786-0 > 100 µM | BT-549 > 100 µM | EKVX > 100 µM | HCT-116 > 100 µM | HOP-92 > 100 µM | IGROV-1 > 100 µM | K562 > 100 µM | LOX IMVI > 100 µM | M14 > 100 µM | MDA-MB-435 > 100 µM | MDA-N > 100 µM | NCI-H460 > 100 µM | OVCAR-5 > 100 µM | PC-3 > 100 µM | RXF 393 > 100 µM | SF-295 > 100 µM | SR > 100 µM | T47D > 100 µM | UACC-62 > 100 µM

CC(=O)N1c2ccccc2C(C)C1c1[nH]c2ccccc2c1C (centres undefined)
inactive: 786-0 19.9 µM | BT-549 22.5 µM | EKVX 18.1 µM | HCT-116 16.5 µM | IGROV-1 24.1 µM | K562 19.5 µM | LOX IMVI 26.1 µM | M14 18.7 µM | MDA-MB-435 18.2 µM | MDA-N 19.9 µM | NCI-H460 19.3 µM | OVCAR-5 14.9 µM | PC-3 31.3 µM | RXF 393 13 µM | SF-295 15 µM | SR 13.9 µM | T47D 18.8 µM | TK-10 22.8 µM | UACC-62 18.4 µM
